Drawing on ChEMBL document CHEMBL4385629, “Evaluation of quinoxaline compounds as ligands of a site adjacent to S2 (AS2) of cruzain” (Bioorg Med Chem Lett, 2019), this text covers inhibition and fold change (FC) for three compounds.

In assay [1] the target is Cruzipain (Trypanosoma cruzi) (UniProt P25779). Description: Inhibition of Trypanosoma cruzi cruzain assessed as reduction in 7-amino-4-methylcoumarin production using Z-FR-AMC as substrate and measured up to 60 mins by fluorescence based method.
Chain of Cruzipain (Trypanosoma cruzi) (P25779 123-467 limits assumed): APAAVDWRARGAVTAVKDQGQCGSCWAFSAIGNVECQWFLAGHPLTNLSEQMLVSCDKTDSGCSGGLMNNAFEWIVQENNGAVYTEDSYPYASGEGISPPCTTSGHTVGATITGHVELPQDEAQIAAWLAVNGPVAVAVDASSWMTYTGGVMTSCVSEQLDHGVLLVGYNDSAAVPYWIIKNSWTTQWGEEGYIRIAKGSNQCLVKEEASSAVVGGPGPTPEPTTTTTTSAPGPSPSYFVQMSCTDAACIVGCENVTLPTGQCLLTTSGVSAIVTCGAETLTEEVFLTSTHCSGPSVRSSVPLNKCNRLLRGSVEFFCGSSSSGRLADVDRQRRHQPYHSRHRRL
The target is the same in assay [2]. Description: Activation of Trypanosoma cruzi cruzain assessed as increase in enzyme activity using Z-FR-AMC as substrate at 0.1 mM incubated for 15 mins in dark and measured at 5 mins interval for 60 mins by fluorescence based method relative to control.

Activity calls are given as the source filed them. The rule behind the calls is not given here.

With `O=C1CNc2ccccc2N1`, the inhibition result in assay [1] is “inactive”. Moreover, the fold change (FC) in assay [2] was 15.
For the compound `Oc1nc2ccccc2nc1O`, the inhibition entry in assay [1] was “inactive”. For the same compound, in assay [2], the fold change (FC) came out at 3.
As to `O=C(O)CCc1nc2ccccc2[nH]c1=O`, the inhibition entry in assay [1] is “inactive”. Moreover, the fold change (FC) in assay [2] is 10.
